Measured values: patent publication US3940482A, “Solubilization of the zinc salt of 1-hydroxy-2-pyridinethione” (priority 1973, dated 1976)
One block for each compound: values may come before it.

Key:
[1] = Effect of chelating/sequestering agent on biocidal activity of zinc pyridinethione; details: aliphatic polyamine, up to two-fold excess
[2] = Solubilization of zinc pyridinethione in water by DETA, DGA, PEI-1000 (visual observations); assay type: physicochemical
Procedure: H2 O. This 48.5 g. slurry is stirred for 1 minute. […] Also, to 0.75 g. […] H2 O. The 45.50 g. slurry is stirred for 1 minute.
**A.E. means active ingredients.

[3] = Solubilization of zinc pyridinethione in amphoteric shampoo base (visual observations)
[4] = Solubilization of zinc pyridinethione in anionic shampoo base (visual observations); assay type: physicochemical
[5] = less than one part EDTA per part pyridinethione salt shows this effect; cited from earlier work

SMILES: NCCNCCN [DETA, diethylene triamine]
effect on antimicrobial activity of zinc pyridinethione [1]: does not reduce the antimicrobial activity
pH at which solution starts clouding up ([2]; pH adjusted downward with HCl): ~9.2
precipitation at pH 8.8 ([2]; pH adjusted downward with HCl, pH 8.8): ~50%
pH down to which shampoo remains clear ([3]; pH adjustment with HCl, smoky color at this pH): ~9.3
Visual observation at pH 9.2 ([4]; anionic shampoo, pH decreased with HCl to 9.2): slightly cloudy

Solubility of zinc pyridinethione on stirring at room temperature for 3 minutes [2]: Less than 10%
effectiveness as solubilizing agent for heavy metal salts of pyridinethione [2]: ineffective
pH of solution unadjusted ([2]; 1.5% zinc pyridinethione, 3.0% solubilizer in water): 11.2
pH - unadjusted ([3]; 1.5% zinc pyridinethione, 3.0% solubilizer): 9.6
Visual - unadjusted [4]: Cloudy shampoo
pH - unadjusted ([4]; anionic shampoo, 1.5% zinc pyridinethione, 3.0% solubilizer): 9.0
zinc pyridinethione soluble (visual, unadjusted pH) ([4]; anionic shampoo, unadjusted pH): < 10%
SMILES: NCCOCCO [DGA, diglycolamine]
Visual observation: hot plate heating until 110°F. [2]: No greater solubility. Zinc pyridinethione quickly settles

SMILES: O=C(O)CN(CCN(CC(=O)O)CC(=O)O)CC(=O)O [ethylenediamine tetraacetic acid]
effect on biocidal activity of zinc pyridinethione [5]: very deleterious effect
